Experimental data published in patent US8507505B2, “Dihydropyrazolopyrimidinone derivative” (MSD K.K., priority 2008, dated 2013).

Assays:
Wee1 kinase = molecular target: T1, Wee1 kinase (Homo sapiens, UniProt P30291); experiment: Wee1 kinase inhibitory effect (Pharmacological Test 1); assay type: biochemical; conditions: purified GST-tagged Wee1 kinase, Poly(Lys, Tyr) substrate, 10 μM ATP, 30° C. for 30 minutes; read-out: Weel Inhibition Activity (IC50)
T1 construct: made in house; host or cells: Sf9 insect cells (recombinant baculovirus)
From the text: The following describes exemplary pharmacological tests of a compound of the present invention._Pharmacological Test 1 (Wee1 kinase inhibitory effect)
A cDNA of Wee1 kinase with glutathione-S-transferase (GST) fused at the amino terminal thereof was inserted into a baculovirus expression vector to construct a recombinant baculovirus, with which cells of an insect cell line Sf9 were infected to overexpress the target protein. The infected cells were collected and lysed, and then the GST-tagged Wee1 kinase protein was adsorbed to a glutathione column and eluted from the column with glutathione, and the active fraction was desalted in a desalting column to give a purified enzyme.
In measurement of the Wee1 kinase activity, a synthetic peptide, Poly(Lys, Tyr) hydrobromide (Lys:Tyr (4:1)) purchased from Sigma was used as the substrate.
The amount of the reaction mixture was 21.1 μL; and the composition of the reaction buffer was 50 mM Tris-HCl buffer (pH 7.4)/10 mM magnesium chloride/1 mM dithiothreitol. The purified Wee1 kinase, 2.5 μg of the substrate peptide, 10 μM of non-labeled adenosine triphosphate (ATP) and 1 μCi of [γ-^33P]-labeled ATP (2500 Ci/mmol or more) were added to the reaction buffer, and the resulting mixture was incubated at 30° C. for 30 minutes. Thereafter, 10 μL of 350 mM phosphate buffer was added to the reaction system to stop the reaction. The substrate peptide was adsorbed on a P81 paper filter 96-well plate and the plate was washed several times with 130 mM phosphate buffer, and the radioactivity thereof was counted using a liquid scintillation counter. The [γ-^33P]-labeled ATP was purchased from Amersham Bioscience, Ltd.
The addition of a test compound to the reaction system was carried out by preparing a series of dilutions of the compound with dimethyl sulfoxide (DMSO) and adding 1.1 μL of each dilution to the reaction system. As a control, 1.1 μL of DMSO was added to the reaction system.

[1] = tested on: Cdc2 (Cdk1) tyrosine-15 phosphorylation in NCI-H1299 cells; experiment: Inhibitory effect on Cdc2 (Cdk1) tyrosine-15 phosphorylation in cells (Pharmacological Test 2, NCI-H1299 method); assay type: cell-based; conditions: Homo sapiens, 200 nM camptothecin 16 hours, then test compound with nocodazole 8 hours, ELISA ratio of tyrosine-15-phosphorylated Cdc2 to Cdc2, read-out: Cdc2-Tyrosine 15 Phosphorylation Inhibiting Effect
From the text: Pharmacological Test 2 (Method for determining drug effect using cells (inhibitory effect on Cdc2 (Cdk1) tyrosine-15 phosphorylation))
Fetal bovine serum (FBS) was purchased from Morgate, Inc.; an RPMI-1640 medium and a DMEM medium were purchased from Invitrogen, Inc.; camptothecin was purchased from Sigma Co.; gemcitabine was purchased from Eli Lilly Japan K.K.; nocodazole and protease inhibitor cocktail were purchased from Sigma Co.; a rabbit anti-Cdc2 antibody and a mouse anti-Cdc2 antibody were purchased from Santa Cruz Biotechnology, Inc.; a rabbit anti-tyrosine-15-phosphorylated Cdc2 antibody and a horseradish peroxidase-labeled anti-mouse IgG antibody were purchased from Cell Signaling Technology, Inc.; and Sure Blue Reserve TMB peroxidase substrate was purchased from Kirkegaard & Perry Laboratories, Inc.
A human non-small cell lung cancer cell line (NCI-H1299) and a human colon cancer cell line (WiDr) can be obtained from American Type Culture Collection (ATCC).
In the method using NCI-H1299 cells, the cells were suspended in an RPMI-1640 medium supplemented with 10% FBS, and 100 μL of the resulting cell suspension was dispensed in a Nunclon Delta treated 96-well plastic plate purchased from Nunc, Inc. at a density of 2000 cells per well, and the plate was incubated overnight at 37° C. under an atmosphere of 5% CO2 and 95% air. Camptothecin was dissolved in dimethyl sulfoxide (DMSO) and further the resulting solution was diluted with an RPMI-1640 medium supplemented with 10% FBS. Then, 50 μL of the diluted solution was added to each well of the plate in which the cells were seeded in advance such that the final concentration of camptothecin was 200 nM, and the plate was incubated at 37° C. under an atmosphere of 5% CO2 and 95% air for 16 hours. A test compound was serially diluted with DMSO, and further diluted with an RPMI-1640 medium supplemented with 10% FBS containing 4000 nM nocodazole. Then, 50 μL of the test compound solution was added to each well of the plate in which the cells treated with camptothecin were seeded, and the plate was incubated at 37° C. under an atmosphere of 5% CO2 and 95% air for 8 hours. Then, the culture medium was removed from each well and […] of a cell lysis buffer was added to each well, and the plate was shaken at 4° C. for 2 hours, and thereafter the liquid in the plate was frozen at −80° C. and then thawed, which was used as a lysed cell solution. Cdc2 and tyrosine-15-phosphorylated Cdc2 in this lysed cell solution were measured by an enzyme-linked immunosorbent assay (ELISA method), and a ratio of tyrosine-15-phosphorylated Cdc2 to Cdc2 was calculated to determine a 50% effective concentration (EC50, nM) of the test compound for inhibition of phosphorylation in cells. The cell lysis buffer as used herein is an aqueous solution […] containing 20 mM HEPES (pH 7.5), 150 mM sodium chloride, 1 mM disodium ethylenediamine tetraacetate, 0.1% polyoxyethylene (10) octylphenyl ether, 1% protease inhibitor cocktail, 1 mM dithiothreitol, 2 mM sodium orthovanadate, 10 mM sodium fluoride and 10 mM glycerol diphosphate. The measurement of Cdc2 by the ELISA method was carried out as follows. 50 μL of a solution of a rabbit anti-Cdc2 antibody obtained by diluting the antibody to 200 times with 50 mM carbonate-bicarbonate buffer (pH 9.6) was dispensed into each well of a 96-well Maxisorb immunoplate purchased from Nunc, Inc., and the immunoplate was let stand overnight at 4° C. to immobilize the antibody thereto. Subsequently, each well was washed three times with phosphate buffered saline (PBS), and 300 μL of PBS containing 5% bovine serum albumin (5% BSA/PBS) was added to each well, and then, the immunoplate was let stand at room temperature for 2 hours. […]

T1 sequence (P30291 whole entry): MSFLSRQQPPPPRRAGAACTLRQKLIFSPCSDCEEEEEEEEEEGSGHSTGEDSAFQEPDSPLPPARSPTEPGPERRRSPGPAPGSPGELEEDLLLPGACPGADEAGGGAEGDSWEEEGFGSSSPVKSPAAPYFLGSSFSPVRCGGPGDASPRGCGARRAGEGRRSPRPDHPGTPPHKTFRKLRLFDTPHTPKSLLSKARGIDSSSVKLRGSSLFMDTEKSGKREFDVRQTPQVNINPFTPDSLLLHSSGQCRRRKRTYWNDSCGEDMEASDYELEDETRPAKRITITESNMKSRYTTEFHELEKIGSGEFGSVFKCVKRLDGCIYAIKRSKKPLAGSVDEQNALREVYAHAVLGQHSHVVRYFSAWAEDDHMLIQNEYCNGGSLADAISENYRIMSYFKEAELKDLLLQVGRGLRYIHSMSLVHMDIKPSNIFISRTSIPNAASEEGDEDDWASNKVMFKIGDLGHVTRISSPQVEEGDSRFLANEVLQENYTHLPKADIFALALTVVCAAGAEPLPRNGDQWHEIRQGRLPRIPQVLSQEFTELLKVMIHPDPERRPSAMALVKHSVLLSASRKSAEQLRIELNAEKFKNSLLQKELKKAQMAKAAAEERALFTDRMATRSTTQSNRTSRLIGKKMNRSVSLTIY

| Compound | IC50 (Wee1 kinase) [µM] | EC50 [1] [µM] |
| --- | --- | --- |
| CN1CCN(c2ccc(Nc3ncc4c(=N)n(-c5c(Cl)cccc5Cl)c(=O)n(C)c4n3)cc2)CC1 [Example 7, 3-(2,6-Dichlorophenyl)-4-imino-1-methyl-7-{[4-(4-methylpiperazin-1-yl)phenyl]amino}-3,4-dihydropyrimido[4,5-d]pyrimidin-2(1H)-one] | 0.006 | – |
| CN(C)CC1CN(c2ccc(Nc3ncc4c(=N)n(-c5c(Cl)cccc5Cl)c(=O)n(C)c4n3)cc2)CCO1 (stereo not shown) [Example 4, 3-(2,6-Dichlorophenyl)-7-[(4-{2-[(dimethylamino)methyl]morpholin-4-yl}phenyl)amino]-4-imino-1-methyl-3,4-dihydropyrimido[4,5-d]pyrimidin-2(1H)-one] | 0.01 | 0.034 |
| Cn1c(=O)n(-c2c(Cl)cccc2Cl)c(=N)c2cnc(Nc3ccc(N4CCN(CCO)CC4)cc3)nc21 [Example 1, 3-(2,6-Dichlorophenyl)-7-({4-[4-(2-hydroxyethyl)piperazin-1-yl]phenyl}amino)-4-imino-1-methyl-3,4-dihydropyrimido[4,5-d]pyrimidin-2(1H)-one] | 0.004 | 0.071 |
| CN(C)[C@@H]1CCN(c2ccc(Nc3ncc4c(=N)n(-c5c(Cl)cccc5Cl)c(=O)[nH]c4n3)cc2)C1 [Example 8, 3-(2,6-Dichlorophenyl)-7-({4-[(3R)-3-dimethylaminopyrrolidin-1-yl]phenyl}amino)-4-imino-3,4-dihydropyrimido[4,5-d]pyrimidin-2(1H)-one] | 0.017 | 0.075 |
| CN(C)CC(=O)N1CCN(c2ccc(Nc3ncc4c(=N)n(-c5c(Cl)cccc5Cl)c(=O)n(C)c4n3)cc2)CC1 [Example 3, 3-(2,6-Dichlorophenyl)-7-[(4-{4-[(dimethylamino)acetyl]piperazin-1-yl}phenyl)amino]-4-imino-1-methyl-3,4-dihydropyrimido[4,5-d]pyrimidin-2(1H)-one] | 0.012 | 0.045 |
| CN1CCC2(CCCN(c3ccc(Nc4ncc5c(=N)n(-c6c(Cl)cccc6Cl)c(=O)[nH]c5n4)cc3)C2)C1 (stereo not shown) [Example 10, 3-(2,6-Dichlorophenyl)-4-imino-7-{[4-(2-methyl-2,7-diazaspiro[4,5]dec-7-yl)phenyl}amino)-3,4-dihydropyrimido[4,5-d]pyrimidin-2(1H)-one] | 0.018 | 0.11 |
| Cc1cc(Nc2ncc3c(=N)n(-c4c(Cl)cccc4Cl)c(=O)[nH]c3n2)ccc1N1CCN(C)CC1 [Example 6, 3-(2,6-Dichlorophenyl)-4-imino-7-{[3-methyl-4-(4-methylpiperazin-1-yl)phenyl]amino}-3,4-dihydropyrimido[4,5-d]pyrimidin-2(1H)-one] | 0.008 | 0.025 |
| CN1CC2CCN(c3ccc(Nc4ncc5c(=N)n(-c6c(Cl)cccc6Cl)c(=O)[nH]c5n4)cc3)C2C1 (stereo not shown) [Example 9, 3-(2,6-Dichlorophenyl)-4-imino-7-{[4-(5-methylhexahydropyrrolo[3,4-b]pyrrol-1(2H)-yl)phenyl}amino)-3,4-dihydropyrimido[4,5-d]pyrimidin-2(1H)-one] | 0.016 | 0.11 |
| Cn1c(=O)n(-c2c(Cl)cccc2Cl)c(=N)c2cnc(Nc3ccc(N4CCOC(CO)C4)cc3)nc21 (stereo not shown) [Example 2, 3-(2,6-Dichlorophenyl)-7-({4-[2-(hydroxymethyl)morpholin-4-yl]phenyl}amino)-4-imino-1-methyl-3,4-dihydropyrimido[4,5-d]pyrimidin-2(1H)-one] | 0.002 | 0.086 |
| CN1CCN(c2ccc(Nc3ncc4c(=N)n(-c5c(Cl)cccc5Cl)c(=O)[nH]c4n3)cc2)CC1 [Example 5, 3-(2,6-Dichlorophenyl)-4-imino-7-{[4-(4-methylpiperazin-1-yl)phenyl]amino}-3,4-dihydropyrimido[4,5-d]pyrimidin-2(1H)-one] | 0.017 | 0.066 |
